Results as given in ChEMBL document CHEMBL3797071, “Repurposing strategies for tropical disease drug discovery” (Bioorg Med Chem Lett, 2016).

Tests used:
[1] = Inhibition of Trypanosoma brucei LeuRS assessed as formation of stable tRNA(Leu)-compound adduct in editing site of enzyme
[2] = system: Trypanosoma brucei; assay: Antiparasitic activity against Trypanosoma brucei […]; type: functional, organism-based
[3] = system: L929; assay: Cytotoxicity against mouse L929 cells; type: cell-based
[4] = system: Leishmania braziliensis; assay: Antiparasitic activity against promastigote stage of Leishmania braziliensis MHOM/BR/2001/BA788 infected in BALB/c mouse assessed as reduction in parasite load at 20 mg/kg, ip administered for 15 days measured after 6 weeks by limiting dillution method; type: functional; parameters: scale not given: the % may be the effect or the level left
[5] = system: Leishmania chagasi; assay: Antiparasitic activity against amastigote stage of Leishmania chagasi MHOM/BR/1972/LD infected in golden hamster assessed as reduction in parasite load at 20 mg/kg, ip administered for 15 days measured after 4 weeks by limiting dillution method; type: functional; parameters: scale not given: the % may be the effect or the level left
[6] = system: Leishmania chagasi; assay: Antiparasitic activity against amastigote stage of Leishmania chagasi MHOM/BR/1972/LD infected in golden hamster assessed as golden hamster survival rate at 20 mg/kg, ip after 18 weeks by limiting dillution method; type: functional
[7] = system: Brugia pahangi; assay: Antifilarial activity against Brugia pahangi infected in gerbils assessed as reduction in worm burden at 5 mg/kg, bid in weekdays for 28 days; type: functional, organism-based; parameters: scale not given: the % may be the effect or the level left
[8] = system: Brugia pahangi; assay: Antifilarial activity against Brugia pahangi infected in gerbils assessed as reduction in worm burden at 5 mg/kg, sid in weekends for 28 days; type: functional, organism-based; parameters: scale not given: the % may be the effect or the level left
[9] = Selectivity ratio of IC50 for Onchocerca ochengi to IC50 for microfilariae of Loa loa; type: functional

For `CCOC(=O)COc1ccc2c(c1)B(O)OC2`, the IC50 [1] was 3.5 µM, the EC50 [2] was 0.72 µM and the EC50 [3] was greater than 40 µM.
`CC(=O)C(C)(C)Oc1ccc2c(c1)B(O)OC2` showed an IC50 [1] of 5 µM, an EC50 [2] of 0.37 µM and an EC50 [3] greater than 40 µM.
In the case of `CC/C(=C(\c1ccccc1)c1ccc(OCCN(C)C)cc1)c1ccccc1` [TAMOXIFEN], the Activity [4] is reported as 95%, the Activity [5] is reported as 95% and the Activity [6] is reported as 100%.
For `OB1OCc2cc(F)ccc21` [TAVABOROLE], the IC50 [1] was 22.1 µM.
Molecule AURANOFIN has an Activity [7] of 58%, an Activity [8] of 91% and a Ratio IC50 [9] of 43.
